Laboratory results taken from US9834548B2, “Pyridazine compounds as JAK inhibitors” (Portola Pharmaceuticals, Inc., priority 2014, dated 2017).
Where two headings read alike, the source gives them in different places.

Key:
Format in all cases: biochemical
[1] = biological target: TYK2 (Homo sapiens (Human), UniProt P29597); assay: Purified kinase assay (Z'-LYTE), TYK2
Procedure: (§1) JAK and TYK2 tyrosine phosphorylation activity is measured using the Z′-LYTE™ Technology developed by Invitrogen Corporation (Carlsbad, Calif.). For JAK1, JAK2 and JAK3 the Z′-LYTE™ Kinase Assay Kit-Tyr6 Peptide (part number PV4122) was used. For TYK2 the Z′-LYTE™ Kinase Assay Kit-Tyr6 Peptide (part number PV3192) was used. The Z′-LYTE™ biochemical assay employs a fluorescence resonance energy transfer (FRET) coupled-enzyme format and is based on the differential sensitivity of phosphorylated and non-phosphorylated peptides to proteolytic cleavage. The assay uses a synthetic peptide substrate that is labeled with a donor fluorophore (coumarin) and an acceptor fluorophore (fluorescein) that make up a FRET pair. In the primary reaction (the Kinase Reaction), the kinase transfers the γ-phosphate of ATP to a single tyrosine residue on the substrate, while the presence of a kinase inhibitor in the primary reaction suppresses phosphorylation. In the secondary reaction (the Development Reaction), a site-specific protease (the Development Reagent) is added. The development buffer quenches the Kinase Reaction, while the protease recognizes and cleaves non-phosphorylated Z′-LYTE™ peptide substrate. Cleavage disrupts FRET between the donor and acceptor fluorophores on the non-phosphorylated substrate, while uncleaved, phosphorylated substrate maintains FRET.
(§2) To test the ability of candidate molecules to inhibit JAK tyrosine phosphorylation activity, molecules are reconstituted in 100% DMSO and serially diluted 1:10 in polypropylene v-bottom microtiter plates. The candidate molecules are then diluted 1:25 into kinase buffer and 2.5 μl transferred into duplicate wells of a 384 well low volume black microtiter assay plate (Corning, USA). The final DMSO concentration in the assay is 1%. The kinase reaction contains 2.5 μl of a candidate molecule, 5 μl of catalytic domain recombinant Kinase enzyme+Tyr peptide substrate (Invitrogen, CA) and ATP (Invitrogen, CA). The kinase reaction is allowed to proceed for 1 hour at room temperature. The protease reaction is initiated by the addition of Development Reagent (Invitrogen, CA). After 1 hour incubation at room temperature the fluorescence is measured using a FlexStation plate reader (Molecular Devices, Sunnyvale, Calif.). The reader settings used are as follows: Fluorescence mode, endpoint, top read, excitation 400 nm, emission 445 nm and 520 nm, Auto Cutoff 435 nm and 515 nm, PMT sensitivity high, 6 reads per well Inhibition of JAK activity is calculated as the percent phosphorylation of substrate in the presence of inhibitor compared to the percent phosphorylation of substrate in the absence of inhibitor. IC50's were derived using Xlfit 4.3 (IDBS, UK), 4 parameter logistic model 205: Y=(A+((B−A)/(1+((C/x)^D)))).

[2] = biological target: JAK3 (Homo sapiens (Human), UniProt P52333); assay: Purified kinase assay (Z'-LYTE), JAK3
JAK3, sequence (P52333 822-1111): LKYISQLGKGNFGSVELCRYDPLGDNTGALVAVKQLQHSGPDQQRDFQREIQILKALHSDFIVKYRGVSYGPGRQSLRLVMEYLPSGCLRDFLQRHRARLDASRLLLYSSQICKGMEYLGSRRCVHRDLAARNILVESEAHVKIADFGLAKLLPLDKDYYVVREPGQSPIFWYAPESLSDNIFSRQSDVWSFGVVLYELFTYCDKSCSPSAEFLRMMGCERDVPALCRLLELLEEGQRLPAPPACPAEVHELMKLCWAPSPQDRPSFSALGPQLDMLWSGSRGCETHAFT
Procedure: as §1, §2

[3] = biological target: JAK1 (Homo sapiens (Human), UniProt P23458); assay: Purified kinase assay (Z'-LYTE), JAK1
JAK1, sequence (P23458 875-1153): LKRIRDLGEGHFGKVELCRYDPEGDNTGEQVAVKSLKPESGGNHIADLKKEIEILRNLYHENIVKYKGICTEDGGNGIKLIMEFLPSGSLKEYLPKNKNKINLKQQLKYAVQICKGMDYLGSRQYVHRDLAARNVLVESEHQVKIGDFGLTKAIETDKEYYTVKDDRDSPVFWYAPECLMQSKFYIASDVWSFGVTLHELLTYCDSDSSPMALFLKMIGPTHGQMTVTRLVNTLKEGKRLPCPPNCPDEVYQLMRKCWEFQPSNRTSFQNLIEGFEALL
Procedure: as §1, §2

[4] = biological target: JAK2 (Homo sapiens (Human), UniProt O60674); assay: Purified kinase assay (Z'-LYTE), JAK2
JAK2, sequence (O60674 849-1124): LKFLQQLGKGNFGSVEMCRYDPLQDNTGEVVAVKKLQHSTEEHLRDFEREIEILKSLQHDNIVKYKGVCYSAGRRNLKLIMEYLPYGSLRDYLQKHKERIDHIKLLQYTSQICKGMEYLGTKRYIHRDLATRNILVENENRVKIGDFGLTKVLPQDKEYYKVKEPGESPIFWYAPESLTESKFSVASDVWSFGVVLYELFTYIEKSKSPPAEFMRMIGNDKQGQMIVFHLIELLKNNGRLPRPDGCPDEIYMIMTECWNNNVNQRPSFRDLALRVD
Procedure: as §1, §2

TYK2, sequence (P29597 897-1176): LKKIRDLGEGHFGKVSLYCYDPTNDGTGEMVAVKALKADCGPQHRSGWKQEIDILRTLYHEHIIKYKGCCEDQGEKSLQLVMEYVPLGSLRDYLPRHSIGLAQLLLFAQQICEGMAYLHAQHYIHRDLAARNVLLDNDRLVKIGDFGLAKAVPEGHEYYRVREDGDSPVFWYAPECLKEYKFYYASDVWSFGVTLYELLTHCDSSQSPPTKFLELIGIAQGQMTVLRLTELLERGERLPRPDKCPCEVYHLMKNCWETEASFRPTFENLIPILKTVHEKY

| Compound | IC50 ([1]; Table 1, read-out: Tyk2 IC50) [µM] | IC50 ([2]; Table 1, read-out: JAK3 IC50) [µM] | IC50 ([3]; Table 1, read-out: JAK1 IC50) [µM] | IC50 ([4]; Table 1, read-out: JAK2 IC50) [µM] | IC50 ([1]; Table 2, read-out: TYK2) [µM] | IC50 ([2]; Table 2, read-out: JAK3) [µM] | IC50 ([3]; Table 2, read-out: JAK1) [µM] | IC50 ([4]; Table 2, read-out: JAK2) [µM] |
| --- | --- | --- | --- | --- | --- | --- | --- | --- |
| CC(=O)N1CCN(c2ccc(Nc3cc(NCc4ccccc4)c(C(N)=O)nn3)cc2)CC1 [Compound 5, 6-((4-(4-acetylpiperazin-1-yl)phenyl)amino)-4-(benzylamino)-pyridazine-3-carboxamide] | 0.1 to 1 | 0.01 to 0.1 | > 1 | 0.1 to 1 |  |  |  |  |
| CC(=O)N1CCN(c2ccc(Nc3cc(NC4(c5ccccc5)CC4)c(C(N)=O)nn3)cc2)CC1 [Compound 57] | > 1 | 0.01 to 0.1 | > 1 | > 1 |  |  |  |  |
| CN(C)C(=O)c1ccc(Nc2cc(NCc3cccc(F)c3)c(C(N)=O)nn2)cc1 [Compound 59] | > 1 | 0.01 to 0.1 | > 1 | 0.1 to 1 |  |  |  |  |
| CCC(=O)N1CCN(c2ccc(Nc3cc(NCc4ccccc4F)c(C(N)=O)nn3)cc2)CC1 [Compound 29] | 0.1 to 1 | 0.01 to 0.1 | > 1 | 0.1 to 1 |  |  |  |  |
| CC(=O)Nc1cccc(Nc2cc(NCc3cccc(F)c3)c(C(N)=O)nn2)c1 [Compound 65] | 0.1 to 1 | 0.01 to 0.1 | > 1 | 0.1 to 1 |  |  |  |  |
| Cc1cc(Nc2cc(NCc3cccc(F)c3F)c(C(N)=O)nn2)ccc1C(=O)N1CCCC1 [Compound 42] | 0.1 to 1 | 0.001 to 0.01 | 0.1 to 1 | 0.01 to 0.1 |  |  |  |  |
| Cc1cc(Nc2cc(NCc3cccc(F)c3)c(C(N)=O)nn2)ccc1C(=O)N(C)C [Compound 60] | > 1 | 0.01 to 0.1 | > 1 | 0.1 to 1 |  |  |  |  |
| CC(=O)N1CCN(c2ccc(Nc3cc(NCc4ccccc4C)c(C(N)=O)nn3)cc2)CC1 [Compound 23] | 0.1 to 1 | 0.001 to 0.01 | 0.1 to 1 | 0.1 to 1 |  |  |  |  |
| Cn1cc(Nc2cc(NCc3cccc(F)c3)c(C(N)=O)nn2)cn1 [Compound 66] | > 1 | 0.01 to 0.1 | > 1 | 0.1 to 1 |  |  |  |  |
| NC(=O)c1nnc(Nc2ccc(N3CCNCC3)cc2)cc1NCc1cccc2ccsc12 [Compound 99] | 0.1 to 1 | 0.001 to 0.01 | 0.1 to 1 | 0.01 to 0.1 |  |  |  |  |
| NC(=O)c1nnc(Nc2cccc(OCCN3CCCC3)c2)cc1NCc1cccc(F)c1 [Compound 56] | > 1 | 0.01 to 0.1 | > 1 | 0.1 to 1 |  |  |  |  |
| Cc1cc(Nc2cc(NCc3cccc(F)c3)c(C(N)=O)nn2)ccc1C(=O)N1CCCC1 [Compound 61] | 0.1 to 1 | 0.001 to 0.01 | > 1 | 0.01 to 0.1 |  |  |  |  |
| CC(=O)N1CCN(c2ccc(Nc3cc(NCc4ccccc4F)c(C(N)=O)nn3)cc2)CC1 [Compound 18, 6-((4-(4-acetylpiperazin-1-yl)phenyl)amino)-4-((2-fluorobenzyl)amino)pyridazine-3-carboxamide] | 0.1 to 1 | 0.001 to 0.01 | 0.1 to 1 | 0.1 to 1 | 0.1 to 1 | 0.001 to 0.01 | > 1 | 0.1 to 1 |
| COc1cccc(CNc2cc(Nc3ccc(N4CCN(C(C)=O)CC4)cc3)nnc2C(N)=O)c1 [Compound 58] | > 1 | 0.01 to 0.1 | > 1 | 0.1 to 1 |  |  |  |  |
| CC(=O)N1CCN(c2ccc(Nc3cc(NCc4cccs4)c(C(N)=O)nn3)cc2)CC1 [Compound 21] | 0.1 to 1 | 0.01 to 0.1 | > 1 | 0.1 to 1 |  |  |  |  |
| NC(=O)c1nnc(Nc2cnn(CC3CCOCC3)c2)cc1NCc1cccc2ccsc12 [Compound 121] |  | 0.001 to 0.01 | 0.1 to 1 | 0.01 to 0.1 |  |  |  |  |
| NC(=O)c1nnc(Nc2ccc(N3CCOCC3)cc2)cc1NCc1cc(F)ccc1F [Compound 37] |  | 0.01 to 0.1 | > 1 | 0.01 to 0.1 |  |  |  |  |
| CS(=O)(=O)Cc1ccc(Nc2cc(NCc3cccc(-c4ccncc4)c3)c(C(N)=O)nn2)cc1 [Compound 132] |  | 0.01 to 0.1 | > 1 | > 1 |  |  |  |  |
| CN(c1ccc(Nc2cc(NCc3cccc(F)c3)c(C(N)=O)nn2)cc1)S(C)(=O)=O [Compound 102] |  | 0.01 to 0.1 | > 1 | 0.1 to 1 |  |  |  |  |

| Compound | IC50 ([1]; Table 1, read-out: Tyk2 IC50) [µM] | IC50 ([2]; Table 1, read-out: JAK3 IC50) [µM] | IC50 ([3]; Table 1, read-out: JAK1 IC50) [µM] | IC50 ([4]; Table 1, read-out: JAK2 IC50) [µM] | IC50 ([1]; Table 2, read-out: TYK2) [µM] | IC50 ([2]; Table 2, read-out: JAK3) [µM] | IC50 ([3]; Table 2, read-out: JAK1) [µM] | IC50 ([4]; Table 2, read-out: JAK2) [µM] |
| --- | --- | --- | --- | --- | --- | --- | --- | --- |
| CC(=O)N1CCN(c2ccc(Nc3cc(NCc4cc(-n5ccnc5)ccc4F)c(C(N)=O)nn3)cc2)CC1 [Compound 103] |  | 0.01 to 0.1 | > 1 | 0.1 to 1 |  |  |  |  |
| NC(=O)c1nnc(Nc2cnn(CC3CC3)c2)cc1NCc1cccc(F)c1F [Compound 118] |  | 0.01 to 0.1 | 0.1 to 1 | 0.1 to 1 |  |  |  |  |
| CC(=O)N1CCN(c2ccc(Nc3cc(NCc4cc(-c5cccnc5)ccc4F)c(C(N)=O)nn3)cc2)CC1 [Compound 104] |  | 0.01 to 0.1 | > 1 | 0.1 to 1 |  |  |  |  |
| NC(=O)c1nnc(Nc2cnccn2)cc1NCc1cccc(-n2ccnc2)c1 [Compound 111] |  | 0.1 to 1 | > 1 | > 1 |  |  |  |  |
| NC(=O)c1nnc(Nc2cc(F)c(N3CCOCC3)c(F)c2)cc1NCc1cccc(F)c1F [Compound 41] |  | > 1 | > 1 | > 1 |  |  |  |  |
| NC(=O)c1nnc(Nc2ccc(N3CCNCC3)cc2)cc1NC1CCCCC1 [Compound 11, 4-(cyclohexylamino)-6-((4-(piperazin-1-yl)phenyl)amino)pyridazine-3-carboxamide] |  | 0.1 to 1 | > 1 | 0.1 to 1 |  |  |  |  |
| CC(=O)N1CCN(C(=O)c2ccc(Nc3cc(NCc4cccc(F)c4)c(C(N)=O)nn3)cc2)CC1 [Compound 81] |  | 0.01 to 0.1 | > 1 | 0.1 to 1 |  |  |  |  |
| NC(=O)c1nnc(Nc2ccc(C(=O)N3CCCC3)c(Cl)c2)cc1NCc1cccc(F)c1 [Compound 55] |  | 0.01 to 0.1 | > 1 | 0.1 to 1 |  |  |  |  |
| CS(=O)(=O)Cc1ccc(Nc2cc(NCc3cccc(F)c3F)c(C(N)=O)nn2)cc1 [Compound 89] | 0.1 to 1 | 0.001 to 0.01 | 0.1 to 1 | 0.1 to 1 |  |  |  |  |
| NC(=O)c1nnc(Nc2ccc(N3CCNCC3)cc2)cc1NCc1cccs1 [Compound 22] |  | 0.01 to 0.1 | > 1 | > 1 |  |  |  |  |
| CC(=O)N1CCN(c2ccc(Nc3cc(NCc4cccc(-c5ccncc5)c4)c(C(N)=O)nn3)cc2)CC1 [Compound 69] |  | 0.01 to 0.1 | > 1 | > 1 |  |  |  |  |
| CS(=O)(=O)CCc1ccc(Nc2cc(NCc3cccc(F)c3)c(C(N)=O)nn2)cc1 [Compound 108] |  | 0.01 to 0.1 | > 1 | 0.1 to 1 |  |  |  |  |
| CC(=O)N1CCN(c2ccc(Nc3cc(N[C@H](C)C(C)C)c(C(N)=O)nn3)cc2)CC1 [Compound 75] |  | 0.01 to 0.1 | 0.1 to 1 | 0.01 to 0.1 |  |  |  |  |
| NC(=O)c1nnc(Nc2cnn(C3CCCC3)c2)cc1NCc1cccc2ccsc12 [Compound 115] |  | 0.01 to 0.1 | > 1 | 0.01 to 0.1 |  |  |  |  |
| Cc1cc(Nc2cc(NCc3cccc(F)c3)c(C(N)=O)nn2)ccc1N1CCOCC1 [Compound 54] |  | 0.01 to 0.1 | > 1 | > 1 |  |  |  |  |
| NC(=O)c1nnc(Nc2ccc(N3CCNCC3)cc2)cc1NCC1CCC1 [Compound 17] |  | 0.1 to 1 | > 1 | > 1 |  |  |  |  |
| NC(=O)c1nnc(Nc2ccc(N3CCOCC3)cc2)cc1NCc1c(F)cccc1F [Compound 39] |  | 0.001 to 0.01 | 0.1 to 1 | 0.01 to 0.1 |  |  |  |  |
| CC(=O)N1CCN(c2ccc(Nc3cc(NCc4cccc(F)c4)c(C(N)=O)nn3)cc2)CC1 [Compound 19] | 0.1 to 1 | 0.001 to 0.01 | > 1 | 0.1 to 1 |  |  |  |  |
| COc1cc(Nc2cc(NCc3cccc(F)c3)c(C(N)=O)nn2)ccc1C(=O)N1CCCC1 [Compound 53] |  | 0.01 to 0.1 | > 1 | 0.1 to 1 |  |  |  |  |
